Here are results for 5 molecules from US20210330661A1 (China Medical University, priority 2020, published 2021).

Read-outs that look alike come from different tables or passages of the source.

For assay [1], the target named is T1, SARS-CoV-2 M^pro (Severe acute respiratory syndrome coronavirus 2, UniProt P0DTD1). Kind of assay: FRET assay of SARS-CoV-2 Mpro activity with boceprevir or narlaprevir. In kind it is biochemical. To be noted: 50 μM drug; 1 μM Mpro; FIG. 6; read-out: inhibitory effect on SARS-CoV-2 Mpro activity.
Assay [2] concerns the target T1, SARS-CoV-2 M^pro. Kind of assay: Limited proteolysis assay by trypsin digestion. To be noted: drug 0, 30, 60, 90 μM; FIG. 5A, 5B.
Experimental: To further probe the conformational changes of SARS-CoV-2 M^pro, the limited proteolysis assay by trypsin digestion is performed. […] Proteolysis is performed by mixing SARS-CoV-2 M^pro (0.8 mg/ml) with trypsin at a protease-to-protein ratio of 1:10 (w/w) in a reaction buffer (25 mM Tris at pH 8.0, 150 mM NaCl) at 37° C. for 30 minutes. The reaction is stopped by adding SDS sample loading buffer and boiling at 95° C. for 10 minutes and subjected to SDS-PAGE (4%-20%).
Assay [3] concerns the target T1, SARS-CoV-2 M^pro. Kind of assay: Soluble fraction / stability of Mpro in presence of drug. To be noted: concentration up to 500 μM; FIG. 4.
Assay [4] deals with T1, SARS-CoV-2 M^pro. Kind of assay: FRET assay of SARS-CoV-2 Mpro activity with tafenoquine or hydroxychloroquine. In kind it is biochemical. To be noted: FIG. 1.
For assay [5], the target named is T1, SARS-CoV-2 M^pro. In kind it is binding. Conditions: various concentrations; FIG. 2A, 2B.
Assay [6] concerns SARS-CoV-2 (strain NTU02) in Vero E6 cells. In kind it is cell-based. Conditions: pre-treated cells, various concentrations; compared to DMSO control; 3-day post infection; FIG. 14.
Assay [7] has the same test system. In kind it is cell-based. Conditions: pre-treatment, 48 hours, MOI 0.0003, FIG. 13.
The test system is the same in assay [8]. In kind it is cell-based. Conditions: 5 μM; compared with DMSO; 3-day post infection; FIG. 12.
Assay [9] shares this test system. Kind of assay: microbe, parasite or virus in culture. In kind it is cell-based.

Take `CC(C)(C)NC(=O)N[C@H](C(=O)N1C[C@H]2[C@@H]([C@H]1C(=O)NC(CC1CCC1)C(=O)C(N)=O)C2(C)C)C(C)(C)C` (some centres unmarked) [boceprevir]: the inhibition at 50 µM on SARS-CoV-2 M^pro [1] is 76.5 ± 4.8%.
Regarding `CCN(CCO)CCCC(C)Nc1ccnc2cc(Cl)ccc12` (centres unmarked) [hydroxychloroquine], on SARS-CoV-2 M^pro [2], the “cleavage of Mpro by trypsin” value was “no concentrations of hydroxychloroquine tested reduce the cleavage”. The “stability of Mpro” value on SARS-CoV-2 M^pro [3] is “does not influence the stability”. The “inhibitory effect on SARS-CoV-2 Mpro” value against SARS-CoV-2 M^pro [4] (various concentrations) is recorded as “does not demonstrate any significant inhibitory effects”. Further, the “shift in melting temperature / thermal stability of Mpro” value at SARS-CoV-2 M^pro [5] is listed as “no influence on the thermal stability”.
For `CCCC[C@H](NC(=O)[C@@H]1[C@@H]2[C@H](CN1C(=O)[C@@H](NC(=O)NC1(CS(=O)(=O)C(C)(C)C)CCCCC1)C(C)(C)C)C2(C)C)C(=O)C(=O)NC1CC1` [narlaprevir], the “cytopathic effect induced by SARS-CoV-2 infection” value in [6] was “significantly lesser”. In addition, in [7] (40 μM narlaprevir), the “inhibition rate against viral RNA production” value is listed as “approximately 76.4%”. The inhibition at 50 µM at SARS-CoV-2 M^pro [1] amounted to 64.1 ± 2.5%.
Take `CCC(CC)COC(=O)[C@H](C)N[P@](=O)(OC[C@H]1O[C@@](C#N)(c2ccc3c(N)ncnn23)[C@H](O)[C@@H]1O)Oc1ccccc1` [remdesivir]: the “inhibition rate against viral RNA production” value in assay [7] (1 μM remdesivir) is around 26.3%.
On to `COc1cc(C)c2c(Oc3cccc(C(F)(F)F)c3)c(OC)cc(NC(C)CCCN)c2n1` (centres unmarked) [tafenoquine], for which, on SARS-CoV-2 M^pro [4] (90 μM, 4 μM Mpro, read-out: inhibition against SARS-CoV-2 Mpro), the inhibition at 90 µM was around 90%. Moreover, the “SARS-CoV-2-induced cytopathic effect” value in assay [8] is recorded as “significant decrease”. In addition, the “viral RNA versus DMSO-treated group” value in [9] (2.5 μM, day not given, FIG. 10) is listed as “no significant difference”. In assay [9] (Day 1 to Day 2 after infection, FIG. 10), the “yield of viral RNA in cell supernatant” value is listed as “significantly represses”. Further, the EC50 in assay [9] (Severe acute respiratory syndrome coronavirus 2, Vero C1008, 48 h, read-out: half maximal effective concentration (EC50)) is around 2500 nM.
